Usually Ki stands for the equilibrium dissociation constant of an inhibitor or competing ligand from its target. A low value points to higher affinity.

For experiment [1], the target named is T1, NMDA receptor (N-methyl-D-aspartate) (Rattus norvegicus, UniProt P35439).
T1 construct: isolated membrane material from rat cerebra; from tissue; host or cells: rat cerebrum, washed membranes
The experiment is described as follows: Binding of 3H-5,7-dichlorokynurenic acid (displacement from rat cerebral membranes). As to conditions: buffer pH 7.4, on ice 30 minutes. As to the method:
(§1) The pharmacological activity of the compounds I according to the invention was investigated on isolated membrane material from rat cerebra. To do this, the membrane material was treated in the presence of the compounds according to the invention with the radiolabeled substances ^3 H-2-amino-3-hydroxy-5-methyl-4-isoxazolepropionic acid (^3 H-AMPA) and ^3 H-5,7-dichlorokynurenic acid, the latter binding to specific receptors (AMPA receptor and NMDA receptor (N-methyl-D-aspartate)respectively). The radioactivity of the treated membranes was subsequently measured by scintillation counting. The amounts of bound ^3 H-AMPA and ^3 H-5,7-dichlorokynurenic acid, or in each case the amounts of these radiolabeled substances displaced, were determined from the bound radioactivity. The dissociation constant KI (I=inhibitor) resulting from this, which is a measure of the displacing effect of the agent according to the invention, was found by iterative nonlinear regression analysis using the Statistical Analysis System (SAS) on an IBM computer, similar to the Ligand program of P. J. Munson or D. Rodbard (Analytical Biochem. 107, 220 (1980), Ligand: Versatile Computerized Approach for Characterization of Ligand Binding Systems).
2. Binding of ^3 H-5,7-dichlorokynurenic acid
To prepare the membrane material, freshly removed rat cerebra were homogenized together with about 10 times the volume of a buffer solution A' composed of 50 mM TRIS-HCl and 10 mM EDTA, pH 7.4. The suspension was centrifuged at 48,000 g for 20 minutes. After removal of the supernatant liquid, the membrane material present in the sediment was washed twice by suspension in buffer solution A' and subsequent centrifugation for 20 minutes each time and suspension. After resuspension of the membranes in buffer solution A' and freezing in liquid nitrogen, the suspension was thawed again at 37° C. and, after another wash step, incubated at 37° C. for 15 minutes. The protein material was subsequently washed by centrifugation and suspension four times and was stored at -70° C. until used.
For the binding assay, the protein material was thawed at 37° C. and washed twice by centrifugation at 48,000 g (20 minutes) followed by suspension in a buffer solution B' composed of 50 mM TRIS-HCl, pH 7.4. Subsequently 0.15 mg of membrane material, 0.3 μCi of ^3 H-5,7-dichlorokynurenic acid (16 Ci/mmol) and compound I were dissolved in 1 ml of buffer solution B' and incubated on ice for 30 minutes. The incubated solution was centrifuged at 150,000 g for 2 minutes. After removal of the supernatant liquid, the sediments were suspended twice in 1.5 ml of cold buffer solution B' each time. After the radioactivity of the ^3 H-5,7-dichlorokynurenic acid bound to the membranes in the sediment had been measured, the KI was found by subjecting the displacement plots to regression analysis.

The next experiment deals with AMPA receptor. The experiment is described as follows: Binding of 3H-AMPA (displacement from rat cerebral membranes). To be noted: buffer pH 7.1, on ice 60 minutes. As to the method:
as §1
1. Binding of ^3 H-2-amino-3-hydroxy-5-methyl-4-isoxanolpropionic acid (^3 H-AMPA)
To prepare the membranes, freshly removed rat cerebra were homogenized together with about 15 times the volume of a buffer solution A composed of 30 mM α,α,α-tris(hydroxymethyl)methylamine hydrochloride (TRIS-HCl) and 0.5 mM ethylenediaminetetraacetic acid (EDTA), pH 7.4, using an Ultra-TURRAX. The suspension was centrifuged at 48,000 g for 20 min. After removal of the supernatant liquid, the proteinaceous membrane material present in the sediment was washed three times by suspension in buffer solution A and subsequent centrifugation at 48,000 g for 20 minutes each time. The membrane material was then suspended in 15 times the volume of buffer solution A and incubated at 37° C. for 30 minutes. The protein material was subsequently washed twice by centrifugation and suspension and stored at -70° C. until used.
For the binding assay, the protein material was thawed at 37° C. and washed twice by centrifugation at 48,000 g (20 minutes) followed by suspension in a buffer solution B composed of 50 mM TRIS-HCl, 0.1 M potassium thiocyanate and 2.5 mM calcium chloride, pH 7.1. Subsequently 0.25 mg of membrane material, 0.1 μCi of ^3 H-AMPA (60 Ci/mmol) and compound I were dissolved in 1 ml of buffer solution B and incubated on ice for 60 minutes. The incubated solution was filtered through a CF/B filter (from Whathman) which had previously been treated with a 0.5% strength aqueous solution of polyethyleneimine for at least 2 hours. The filtrate [sic] was then washed with 5 ml of cold buffer solution B in order to separate bound and free ^3 H-AMPA from one another. After the radioactivity of the bound ^3 H-AMPA in the membrane material had been measured by scintillation counting, the KI was determined by subjecting the displacement plots to regression analysis.

Consider `COC(=O)CCc1nc2c3cc(C)c(C)cc3[nH]c(=O)n2n1` [Example 4, Methyl 3-(8,9-dimethyl-1,2,4-triazolo[1,5-c]quinazolin-5-on-2)propionate], for which the affinity in experiment [1] corresponds to a Ki of 1750 nM.
`O=C(O)CCCc1nc2c3ccc([N+](=O)[O-])cc3[nH]c(=O)n2n1` [Example 13]: the Ki was 500 nM in experiment [1] and 3400 nM at AMPA receptor.
In the same order, the values of `O=C(O)CCc1nc2c3ccc([N+](=O)[O-])cc3[nH]c(=O)n2n1` [Example 14] are 170 nM and 600 nM.
Turning to `O=C(O)CCc1nc2c3cc([N+](=O)[O-])c([N+](=O)[O-])cc3[nH]c(=O)n2n1` [Example 15], the Ki in experiment [1] is 400 nM; at AMPA receptor, 1000 nM.
In turn, `Cc1cc2[nH]c(=O)n3nc(CCC(=O)O)nc3c2cc1C` [Example 16] came in with a Ki in experiment [1] of 100 nM.
In the case of `O=C(O)CCc1nc2c3ccc(C(F)(F)F)cc3[nH]c(=O)n2n1` [Example 18], the results for the Ki (in experiment [1]; on AMPA receptor) were 650 nM and 600 nM, respectively.
For `O=C(O)CCc1nc2c3ccc4ccccc4c3[nH]c(=O)n2n1` [Example 19], the values for the Ki (in experiment [1]; on AMPA receptor) were 300 nM and 700 nM, respectively.
In the case of `O=C(O)CCc1nc2c3cc4ccccc4cc3[nH]c(=O)n2n1` [Example 20], the inhibition constant Ki stood at 400 nM in experiment [1] and 600 nM at AMPA receptor.
For `Cc1cc2[nH]c(=O)n3nc(CCC(=O)NCc4ccccc4)nc3c2cc1C` [Example 21, 3-(8,9-Dimethyl-1,2,4-triazolo[1,5-c]quinazolin-5-on-2)propionic acid benzylamide], in experiment [1], the inhibition constant Ki is 800 nM.

The values are drawn from patent US5631261A, “Triazoloquinazolines, their preparation and use” (BASF Aktiengesellschaft, priority 1992, dated 1997).
